Measurements reported in patent US20250147039A1, “Compounds for complexation of rare earth elements and/or s-, p-, d- block metals, their coordination compounds, peptide conjugates, method of their preparation and use thereof” (USTAV ORGANICKE CHEMIE A BIOCHEMIE AV CR V.V.I., priority 2021, published 2025).

Experiments:
Format in all cases: physicochemical
[1] = Relaxivities of Gd^III chelates, inversion recovery pulse sequence on relaxometer (0.5 T) (Chart 15); settings: 40.0° C., 1.0 mM in aq. MOPS/NaOH buffer, pH 7.0
[2] = Dissociation of chelates in aq. 6.0M HCl at 80° C. (acid decomplexation kinetic inertness) (Chart 17)
[3] = Dissociation of chelates in aq. 1.0M HCl at 80° C. (acid decomplexation kinetic inertness) (Chart 18)
[4] = Dissociation of chelates in aq. 0.1M HCl at 80° C. (acid decomplexation kinetic inertness) (Chart 19)
[5] = Dissociation of chelates in aq. 0.1M HCl at RT (acid decomplexation kinetic inertness) (Chart 20)

relaxivity [1]: 1.48 mM⁻¹ s⁻¹
fraction of intact chelate ([2]; 1 month): 0%
fraction of intact chelate ([2]; 1 week): 0%
fraction of intact chelate ([2]; 1 hour): 2%
fraction of intact chelate ([2]; 1 day): 0%
fraction of intact chelate ([3]; 1 month): 0%
fraction of intact chelate ([3]; 1 week): 1%
fraction of intact chelate ([3]; 1 hour): 98%
fraction of intact chelate ([3]; 1 day): 58%
fraction of intact chelate ([4]; 1 month): 82%
fraction of intact chelate ([4]; 1 week): 95%
fraction of intact chelate ([4]; 1 hour): 100%
fraction of intact chelate ([4]; 1 day): 99%
fraction of intact chelate ([5]; 1 month): 100%
fraction of intact chelate ([5]; 1 week): 100%
fraction of intact chelate ([5]; 1 hour): 100%
fraction of intact chelate ([5]; 1 day): 100%
Compound: O=C1C[N@@]2CC[N@]3CC[N@@](CC[N@](CC2)Cc2cccc(n2)-c2cnnn2Cc2cc(-c4ccccc4)cc(n2)C3)CC(=O)[O][Gd][O]1 [TD527]
